The target in assay [1] is T1, human α3β4-nAChR (Homo sapiens, UniProt P30926+P32297).
T1 construct: expressed in transfected cells
Kind of assay: membrane potential dye assay, SH-EP1-α3β4-nAChR cells. It counts as cell-based. The protocol:
(§1) Concordance between replicates was assessed using linear regression.

Assay [2] deals with T2, human α6/3β2β3-nAChR (Homo sapiens, UniProt P17787+P32297+Q05901+Q15825).
T2 construct: expressed in transfected cells
Briefly: membrane potential dye assay, SH-EP1-α6/3β2β3-nAChR cells. It counts as cell-based. Here is the method: as §1

In assay [3] the target is T3, human α4β2-nAChR (Homo sapiens, UniProt P17787+P43681). Briefly: cell-based.
T3 sequence (P43681 29-627 limits assumed): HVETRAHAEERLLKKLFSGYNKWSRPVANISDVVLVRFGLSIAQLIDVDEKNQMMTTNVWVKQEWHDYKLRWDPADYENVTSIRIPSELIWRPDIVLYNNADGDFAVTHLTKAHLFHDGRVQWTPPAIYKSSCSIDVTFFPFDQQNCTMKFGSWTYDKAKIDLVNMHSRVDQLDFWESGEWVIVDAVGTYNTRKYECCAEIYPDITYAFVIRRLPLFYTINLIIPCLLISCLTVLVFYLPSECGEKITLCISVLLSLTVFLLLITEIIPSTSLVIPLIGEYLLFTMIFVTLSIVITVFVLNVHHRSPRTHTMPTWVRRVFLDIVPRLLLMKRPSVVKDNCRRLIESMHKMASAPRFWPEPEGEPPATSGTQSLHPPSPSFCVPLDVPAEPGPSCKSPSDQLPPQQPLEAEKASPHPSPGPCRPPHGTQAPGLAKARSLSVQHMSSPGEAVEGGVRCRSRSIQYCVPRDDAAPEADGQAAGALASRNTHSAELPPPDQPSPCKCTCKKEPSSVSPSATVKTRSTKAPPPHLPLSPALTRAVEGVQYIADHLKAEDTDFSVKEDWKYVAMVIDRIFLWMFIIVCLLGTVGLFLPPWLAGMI
T3 sequence (P17787 26-502): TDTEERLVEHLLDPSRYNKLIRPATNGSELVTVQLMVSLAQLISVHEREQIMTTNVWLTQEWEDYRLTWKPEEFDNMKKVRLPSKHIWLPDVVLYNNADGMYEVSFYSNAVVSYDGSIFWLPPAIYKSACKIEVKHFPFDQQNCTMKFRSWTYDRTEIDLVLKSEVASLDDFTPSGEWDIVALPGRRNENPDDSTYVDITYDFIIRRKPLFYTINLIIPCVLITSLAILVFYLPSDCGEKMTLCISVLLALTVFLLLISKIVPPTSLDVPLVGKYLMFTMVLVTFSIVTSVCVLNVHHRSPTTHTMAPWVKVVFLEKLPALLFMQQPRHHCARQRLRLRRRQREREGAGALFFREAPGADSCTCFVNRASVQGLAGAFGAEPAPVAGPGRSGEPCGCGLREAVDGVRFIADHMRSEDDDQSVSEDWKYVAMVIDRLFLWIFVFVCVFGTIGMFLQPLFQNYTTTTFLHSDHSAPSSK
Procedure: As described in that prior publication, this SH-EP1-α6/3 β2β3-nAChR monoclone is maintained in medium supplemented with zeocin (0.25 mg/mL), hygromycin (0.13 mg/mL biologically active) and G418 (0.6 mg/mL) to maintain positive selection of transfectants, and cultured at low passage numbers (1–40 from our frozen stocks) to ensure stable expression of the phenotype.
For the SH-EP1-α4 β2-nAChR and SH-EP1-α6/3 β2β3-nAChR lines: cells were seeded into 384-well black tissue culture plates (Corning #3712) at 7000 cells per well in 50 μl assay media using a microfill (BioTek). The plates were incubated overnight at 37 °C to allow cells to adhere to the plate, then transferred to 29 °C and incubated for ~72h to maximize receptor expression. On the compound addition day, medium was aspirated and plates washed one time with wash buffer (1x HBSS with 20 mM HEPES adjusted to pH 7.4) using a BioTek ELx405 Select CW Plate Washer. Twenty-five microliters of 0.5x FLIPR Membrane Potential dye (Molecular Devices, R8034; prepared in wash buffer) was added to the plates using a microfill. The plates were further incubated at 29 °C for 60 min and background fluorescence was measured (Envision, Perkin Elmer). […] Plates were then incubated at room temperature for 20 min and fluorescence was measured again. Background fluorescence was subtracted from the final fluorescence read during data analysis.
EC50 values were calculated using nonlinear regression analysis via GraphPad Prism 7 (GraphPad software, Inc.).
After subtracting background fluorescence from fluorescent read for each plate well, the raw data were converted into a list and all plates were appended by run. For analysis purposes, each data point was annotated with well coordinate, well type, compound identifier, titer plate barcode, run identifier, date, and protocol information. Basic statistics and QC criteria were calculated within TIBCO Spotfire (v7.0.0). Basic statistics of control wells were examined by well type, by run, plate, and row/column to monitor run-to-run and plate-to-plate variation, and to exclude possible experimental issues such as striping. […] Concordance between replicates was assessed using linear regression. For each test well, the percentage of inhibition was obtained by subtracting the normalized fluorescent signal (NFS), expressed as a percentage, from 100%.
Assay [4] addresses T1, human α3β4-nAChR. Briefly: 86Rb+ efflux orthogonal assay, SH-EP1-α3β4-nAChR cells. As to conditions: 10 μM; validated = reduced specific efflux by > 3x SD vs no-drug control. The class given is cell-based. Here is the method: (§2) Cells were grown to confluence in 24-well plates (Falcon; 500 μl volume per well). The evening before each assay was to be performed, the medium was removed and replaced with 250 μl per well of complete medium supplemented with ~350,000 cpm of ^86Rb^+ (NEN; counted at 40% efficiency using Cerenkov counting and the Packard TriCarb 1900 Liquid Scintillation Analyzer). This allowed overnight loading of cells with tracer.
(§3) Determinations of antagonist efficacy were performed in triplicate in each plate, and each antagonist was tested in three separate experiments. […] Specific efflux was then taken as the difference in control samples between total and non-specific ^86Rb^+ efflux, and was used to calculate the efficacy of blocking specific efflux by the test compounds.
(§4) Fig. 4. Validation and specificity testing of HTS antagonist hits using an orthogonal assay. […] (A) All plates were normalized to internal maximum and minimum controls, as described in the Materials and Methods section. […] Activity measured at α3β4-nAChR is shown with blue symbols, that at α4β2-nAChR with red symbols, and that at α6/3 β2 β3-nAChR with green symbols. Dashed lines are color-matched to data symbols and designate the 3 X SD thresholds above the no-antagonist controls, used to determine validation of antagonist activity in each of the assays.

Assay [5] has as its target T2, human α6/3β2β3-nAChR. Briefly: 86Rb+ efflux orthogonal assay, SH-EP1-α6/3β2β3-nAChR cells. It counts as cell-based. The following applies: 10 μM; validated = reduced specific efflux by > 3x SD vs no-drug control. The protocol: as §2, §3, §4
Assay [6] has as its target T3, human α4β2-nAChR. Kind of assay: 86Rb+ efflux orthogonal assay, SH-EP1-α4β2-nAChR cells. The class given is cell-based. Set-up: expressed in transfected cells. The following applies: 10 μM; validated = reduced specific efflux by > 3x SD vs no-drug control. Here is the method:
Cells were grown to confluence in 24-well plates (Falcon; 500 μl volume per well). The evening before each assay was to be performed, the medium was removed and replaced with 250 μl per well of complete medium supplemented with ~350,000 cpm of ^86Rb^+ (NEN; counted at 40% efficiency using Cerenkov counting and the Packard TriCarb 1900 Liquid Scintillation Analyzer). This allowed overnight loading of cells with tracer. The assay was based on a proven, routine ^86Rb^+ efflux assay “flip-plate” protocol that includes 1500 nM atropine to exclude possible contributions of muscarinic acetylcholine receptors, with test compound or control solutions applied for 30 s.
Determinations of antagonist efficacy were performed in triplicate in each plate, and each antagonist was tested in three separate experiments. […] Both determinations of non-specific efflux were equivalent. Specific efflux was then taken as the difference in control samples between total and non-specific ^86Rb^+ efflux, and was used to calculate the efficacy of blocking specific efflux by the test compounds.
Fig. 4. Validation and specificity testing of HTS antagonist hits using an orthogonal assay. […] Activity measured at α3β4-nAChR is shown with blue symbols, that at α4β2-nAChR with red symbols, and that at α6/3 β2 β3-nAChR with green symbols. […]

Where [7] appears, read: read-out: pre-determined EC90 value.
[8] abbreviates: IC50, 5 min incubation, in the presence of 500nM of nicotine.
Where [9] appears, read: IC50, 10 min incubation, in the presence of 500nM of nicotine.
Setting [10] is: IC50, 20 min incubation, in the presence of 500nM of nicotine.
The mark [11] stands for this setting: IC50, 25 min incubation, in the presence of 500nM of nicotine.
Setting [12] is: average IC50 across all time-points, averaged over 5-30 min reads, nicotine at EC90.

Here are results for four compounds from article PMC8816891, “High-throughput cell-based assays for identifying antagonists of multiple smoking-associated human nicotinic acetylcholine receptor subtypes” (SLAS discovery : advancing life sciences R & D, 2021).

Structures can show the parent of a compound that is named as a salt. Where two headings read alike, the source gives them in different places.

T1 sequence (P32297 32-505): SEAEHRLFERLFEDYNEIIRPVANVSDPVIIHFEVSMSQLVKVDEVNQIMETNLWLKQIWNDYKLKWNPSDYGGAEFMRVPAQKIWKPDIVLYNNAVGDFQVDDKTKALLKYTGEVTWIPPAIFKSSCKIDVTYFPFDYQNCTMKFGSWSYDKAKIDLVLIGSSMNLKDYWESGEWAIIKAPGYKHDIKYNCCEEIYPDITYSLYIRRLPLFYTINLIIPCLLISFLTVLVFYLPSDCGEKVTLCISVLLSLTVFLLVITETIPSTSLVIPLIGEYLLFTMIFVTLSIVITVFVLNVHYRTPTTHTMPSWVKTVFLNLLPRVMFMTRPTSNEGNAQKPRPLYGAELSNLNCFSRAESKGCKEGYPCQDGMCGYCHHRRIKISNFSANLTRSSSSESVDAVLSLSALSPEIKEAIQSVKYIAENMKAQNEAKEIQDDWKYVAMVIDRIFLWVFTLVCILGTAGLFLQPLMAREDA
T1 sequence (P30926 22-498): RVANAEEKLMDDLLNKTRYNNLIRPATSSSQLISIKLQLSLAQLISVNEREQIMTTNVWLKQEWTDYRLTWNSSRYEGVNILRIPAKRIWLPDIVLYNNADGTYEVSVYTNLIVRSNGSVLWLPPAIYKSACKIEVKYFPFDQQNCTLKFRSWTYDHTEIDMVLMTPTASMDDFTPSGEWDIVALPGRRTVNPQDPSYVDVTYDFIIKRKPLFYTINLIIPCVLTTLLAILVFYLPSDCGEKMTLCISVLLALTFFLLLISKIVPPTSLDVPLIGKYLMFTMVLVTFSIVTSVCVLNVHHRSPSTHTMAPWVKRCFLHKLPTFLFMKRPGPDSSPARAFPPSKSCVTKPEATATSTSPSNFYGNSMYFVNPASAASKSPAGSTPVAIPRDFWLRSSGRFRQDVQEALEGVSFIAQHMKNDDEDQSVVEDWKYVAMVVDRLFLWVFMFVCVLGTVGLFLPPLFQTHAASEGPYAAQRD
T2 sequence (Q15825+P32297 fused with the stated changes): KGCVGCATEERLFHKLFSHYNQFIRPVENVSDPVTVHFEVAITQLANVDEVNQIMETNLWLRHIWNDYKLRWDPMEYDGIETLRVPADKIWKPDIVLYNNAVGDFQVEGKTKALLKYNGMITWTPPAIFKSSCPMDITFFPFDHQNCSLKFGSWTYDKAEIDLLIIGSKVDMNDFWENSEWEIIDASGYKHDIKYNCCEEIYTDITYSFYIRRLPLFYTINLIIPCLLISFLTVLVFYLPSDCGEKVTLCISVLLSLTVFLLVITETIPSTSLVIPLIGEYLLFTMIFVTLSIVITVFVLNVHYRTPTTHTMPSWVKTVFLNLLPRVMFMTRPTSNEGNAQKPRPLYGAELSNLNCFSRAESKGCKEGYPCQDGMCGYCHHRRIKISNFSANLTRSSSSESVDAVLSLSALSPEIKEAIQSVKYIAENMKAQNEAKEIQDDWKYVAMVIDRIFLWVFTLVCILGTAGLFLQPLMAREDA
T2 sequence (P17787 26-502): as the sequence (P17787 26-502) above
T2 sequence (Q05901 22-458): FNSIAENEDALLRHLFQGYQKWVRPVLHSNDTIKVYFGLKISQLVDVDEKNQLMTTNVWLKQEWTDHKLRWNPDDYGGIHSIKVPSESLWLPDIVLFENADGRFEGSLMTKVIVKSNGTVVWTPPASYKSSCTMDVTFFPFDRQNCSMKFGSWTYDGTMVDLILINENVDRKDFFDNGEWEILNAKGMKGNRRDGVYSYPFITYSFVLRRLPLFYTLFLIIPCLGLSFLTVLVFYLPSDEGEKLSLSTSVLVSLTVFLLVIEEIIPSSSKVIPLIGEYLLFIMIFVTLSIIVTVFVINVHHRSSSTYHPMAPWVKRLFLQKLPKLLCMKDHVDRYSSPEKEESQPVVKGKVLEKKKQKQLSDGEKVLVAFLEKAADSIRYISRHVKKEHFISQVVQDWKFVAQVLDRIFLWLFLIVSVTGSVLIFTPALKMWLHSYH

The term EC90 denotes the concentration needed for an effect of 90%. Take `CN1CCC[C@H]1c1cccnc1` [nicotine, (−)-nicotine]: the concentration for an effect of 90% (EC90) was 20000 nM in assay [1] (setting [7]), 500 nM in assay [2] (setting [7]) and 500 nM in assay [3] (setting [7]).

As for `CNCCC=C1c2ccccc2CCc2ccccc21` [nortriptyline hydrochloride], in assay [1] (test compound 10 μM with 20 μM nicotine (EC90), hit = signal below mean - 3 SD), the “antagonist hit call in pilot screen” value is given as “identified as a hit”.

`C[N+](C)(C)CCCCCC[N+](C)(C)C` [hexamethonium]: the IC50 in assay [3] (IC50) was 71600 nM; in assay [3] (setting [8]) it was 98300 nM; in assay [3] (setting [9]), 100000 nM; in assay [3] (setting [10]), 47900 nM; in assay [3] (setting [11]), 38900 nM; in assay [3] (IC50, 30 min incubation, in the presence of 500nM of nicotine), 37400 nM. In assay [3] (setting [12]), the IC50 is 65800 ± 28800 nM.

`CNC1(C)C2CCC(C2)C1(C)C` (stereo not drawn) [mecamylamine]: the IC50 in assay [2] (in the presence of 500 nM nicotine (EC90), read-out: IC50 (α6/3β2β3), Fig. 2D) is 1670 nM; in assay [2] (nicotine at EC90, read-out: average IC50, comparison across subtypes), 1670 nM; in assay [3] (IC50) it was 896 nM; in assay [3] (IC50 (α4β2), Fig. 2D, in the presence of 500 nM nicotine (EC90), subtype comparison) it was 537 nM; in assay [3] (setting [8]) it was 2250 nM; in assay [3] (setting [9]), 1090 nM. In addition, the IC50 in assay [3] (setting [10]) is 919 nM; in assay [3] (setting [11]), 983 nM; in assay [3] (average IC50, comparison across subtypes, nicotine at EC90), 540 nM; in assay [3] (setting [12]), 1210 ± 520 nM. Besides, the “antagonist hit identified in HTS and validated by 86Rb+ efflux” value in assay [4] was “identified and validated as a hit”; in assay [5], “identified and validated as a hit”; in assay [6], “identified and validated as a hit”.
